Measured values as given in ChEMBL document CHEMBL3808311, “Inhibitors of Renal Outer Medullary Potassium Channel” (ACS Med Chem Lett, 2016).

What follows are compounds tested against T1, ATP-sensitive inward rectifier potassium channel 1 (Homo sapiens, UniProt P48048) (assay: Inhibition of human Kir1.1 expressed in HEK293 cells after 30 mins by thallium flux assay).
T1 sequence (P48048 whole entry): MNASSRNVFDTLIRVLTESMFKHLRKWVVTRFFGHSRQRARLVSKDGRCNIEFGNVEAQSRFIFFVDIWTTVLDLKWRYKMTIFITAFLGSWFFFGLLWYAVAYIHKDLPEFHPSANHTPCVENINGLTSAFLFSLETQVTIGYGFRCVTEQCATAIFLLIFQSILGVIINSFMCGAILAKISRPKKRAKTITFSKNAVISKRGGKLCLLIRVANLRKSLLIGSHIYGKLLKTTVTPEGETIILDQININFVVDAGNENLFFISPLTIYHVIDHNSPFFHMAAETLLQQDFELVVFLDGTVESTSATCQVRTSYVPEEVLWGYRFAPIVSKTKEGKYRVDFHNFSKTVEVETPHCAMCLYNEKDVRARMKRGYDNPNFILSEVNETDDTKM
Type: cell-based

| SMILES | IC50 |
| --- | --- |
| CC1=C(N2CCC3(CCN(C[C@H](O)c4ccc5c(c4)-c4nnnn4C5)CC3)C2=O)COC1=O | 11 nM |
| CC1=C(N2CCC3(CCN(C[C@@H](O)c4cc5c(cc4Cl)Cn4nnnc4-5)CC3)C2=O)COC1=O | 9 nM |
| C[C@@H]1CC2(CCN(C[C@@H](O)c3ccc4c(c3)-c3nnnn3C4)CC2)C(=O)N1C1=CC(=O)OC1 | 7 nM |
| CC1=C(N2CCC3(CCN(C[C@H](O)c4cc5c(cc4C)Cn4nnnc4-5)CC3)C2=O)COC1=O | 17 nM |
| C[C@H]1CC2(CCN(C[C@@H](O)c3ccc4c(c3)-c3nnnn3C4)CC2)C(=O)N1C1=CC(=O)OC1 | 14 nM |
| C[C@@H]1CC2(CCN(C[C@H](O)c3ccc4c(c3)-c3nnnn3C4)CC2)C(=O)N1C1=CC(=O)OC1 | 32 nM |
| CC1=C(N2CCC3(CCN(C[C@H](O)c4ccc5c(c4)-c4nnnn4C5)C[C@H]3F)C2=O)COC1=O (stereo partly specified) | 43 nM |
| CC1=C(N2CCC3(CCN(C[C@H](O)c4cc5c(cc4Cl)Cn4nnnc4-5)CC3)C2=O)COC1=O | 31 nM |
| CC1=C(N2CCC3(CCN(C[C@H](O)c4ccc5c(c4)-c4nnnn4C5)C[C@@H]3F)C2=O)COC1=O (stereo partly specified) | 35 nM |
| C[C@H]1CC2(CCN(C[C@H](O)c3ccc4c(c3)-c3nnnn3C4)CC2)C(=O)N1C1=CC(=O)OC1 | 20 nM |
| CC1=C(N2CCC3(CCN(C[C@@H](O)c4ccc5c(c4)-c4nnnn4C5)CC3)C2=O)COC1=O | 19 nM |
